Patent US20220274947A1, “NOVEL HETEROARYL-TRIAZOLE COMPOUNDS AS PESTICIDES” (Bayer Aktiengesellschaft, priority 2019, published 2022)

Key:
Assay type in all cases: in vivo
Ctenocephalides felis [1] = experiment: Ctenocephalides felis oral test (CTECFE Oral); details: 48 h, read-out: activity (mortality)
Outline: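 Percent mortality was recorded 2 days after roughly 20 adult Ctenocephalides felis fed on treated cattle blood. The blood was warmed to 37 °C beneath a parafilm membrane, with the fleas kept at room temperature. Compound was dissolved in DMSO and diluted into the blood to test concentration.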

Spodoptera frugiperda = Spodoptera frugiperda spray test; details: in Zea mays, 168 h, read-out: activity (mortality)
Outline: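 Percent kill of fall armyworm caterpillars was assessed 7 days after infesting dried, treated maize leaf sections. Treatment was a spray of compound in acetone/dimethylformamide, diluted with water containing emulsifier at 1000 ppm.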

Rhipicephalus microplus [2] = experiment: Rhipicephalus (Boophilus) microplus in-vitro contact test, larval cattle tick, strain Parkhurst (BOOPMI Cont); details: application rate 5 μg/cm^2 (=500 g/ha), tick larvae, after 48 hours, read-out: activity (efficacy: 100% means all larvae are dead or moribund)
Outline: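 After 48 h at 27° C. and 85% humidity, percent dead or moribund larvae was scored from negative geotactic behaviour. Larvae (20-50, Parkhurst strain, synthetic pyrethroid-resistant) were exposed in tubes coated with compound from acetone, 900 ppm corresponding to 5 μg/cm^2.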

Diabrotica balteata = Diabrotica balteata spray test; details: 168 h, wheat seeds, larvae, after 7 days, read-out: activity (efficacy: 100% means all seedlings have grown up like in the untreated, uninfected control); for pest or weed control at 32 µg/disc, 100 g/ha: application rate 100 g/ha (=32 μg/well); for pest or weed control at 160 µg/disc, 500 g/ha: application rate 500 g/ha (=160 μg/well)
Outline: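 Efficacy (%) was scored 7 days after spraying, with 100% meaning growth like the untreated, uninfected control and 0% meaning no seedling grew. Spray solutions of compound in acetone/DMF with emulsifier-containing water went onto 1-day-germinated wheat seeds, and each unit was then infested with 10-20 banded cucumber beetle larvae.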

Nezara viridula = Nezara viridula spray test; details: in Hordeum vulgare, 96 h, application rate 500 g/ha, barley plants, larvae, after 4 days
Outline: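 Mortality was read at day 4 (0% = no kill, 100% = total kill) after spraying larva-infested barley plants. Test solutions were made from an acetone/DMF concentrate diluted with water holding 1000 ppm alkylarylpolyglycol ether emulsifier.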

Rhipicephalus microplus [3] = experiment: Rhipicephalus (Boophilus) microplus injection test (BOOPMI Inj); details: 168 h, injection into adult engorged female ticks, egg deposition after 7 days, read-out: activity (efficacy: 100% means all eggs are infertile); for pest or weed control at 0.02 mg: application rate 20 μg/tick; for pest or weed control at 0.004 mg: application rate 4 μg/tick
Outline: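 Compound in DMSO, 1 μL, injected abdominally into five adult engorged females, which were then held in a climate chamber. Read-out is egg fertility, scored from deposition at 7 days, with unclear eggs followed to hatching (~42 days); 0% means all eggs fertile, 100% all infertile.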

[4] = system: Culex quinquefasciatus strain P00; experiment: Culex quinquefasciatus test (CULXFA surface treatment & contact assay); details: exposure 30 minutes, 24 hours after contact, read-out: efficacy (mortality); for mortality at 20 mg/m2: surface concentration 20 mg/m^2, glazed tile; for mortality at 4 mg/m2: surface concentration 4 mg/m^2, glazed tile
Procedure: Culex quinquefasciatus Test (CULXFA Surface Treatment & Contact Assay) Solvent: Aceton+2000 ppm rapeseed oil methyl ester (RME)
In order to produce a sufficient, active ingredient containing solution it is necessary to solve the test compound in the solvent-mix (acetone at 2 mg/ml/RME 2 000 ppm). This solution is pipetted onto a glazed tile and after evaporation of the acetone, adult mosquitoes of the species Culex quinquefasciatus strain P00 are placed onto the dried surface. The exposure time is 30 minutes. Mortality in percent (%) is determined 24 hours after contact of the insects to the treated surface. 100% mortality means that all tested insects are dead, whereas 0% means that no insect died.

Ctenocephalides felis [5] = experiment: Ctenocephalides felis in-vitro contact test, adult cat flea (CTECFE Cont); details: application rate 5 μg/cm^2 (=500 g/ha), adult cat fleas, after 48 hours, read-out: activity (efficacy: 100% means all fleas are dead or moribund)
Outline: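 Efficacy, as percent of fleas dead or moribund, was scored 48 h after adults (5-10 per tube) were placed in glass tubes whose walls carried dried compound at 5 μg/cm^2 (900 ppm solution). Moribund meant failing to climb away from a 45-50° C. hot plate within 5 min.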

Row | SMILES | mortality at 100 ppm (Ctenocephalides felis [1]) | mortality at 100 g/ha (Spodoptera frugiperda) | mortality at 500 g/ha (Spodoptera frugiperda) | pest or weed control at 5 µg/cm2 (Rhipicephalus microplus [2]) | pest or weed control at 32 µg/disc, 100 g/ha (Diabrotica balteata) | pest or weed control at 160 µg/disc, 500 g/ha (Diabrotica balteata) | mortality at 500 g/ha (Nezara viridula) | pest or weed control at 0.02 mg (Rhipicephalus microplus [3]) | mortality at 20 mg/m2 [4] | pest or weed control at 5 µg/cm2 (Ctenocephalides felis [5]) | pest or weed control at 0.004 mg (Rhipicephalus microplus [3]) | mortality at 4 mg/m2 [4]
1 | C[C@H](NC(=O)c1cccc(Cl)n1)c1ncnn1-c1ccc(C#N)cn1 [II-9] | 90% | 83% | 100% | 80% | 100% | 100% | 100% | 100% | 80 to 100% | – | – | –
2 | Cc1nc([C@H](C)NC(=O)c2cc(Cl)cc(Cl)c2)n(-c2cc(C#N)ccn2)n1 [II-17] | 100% | – | 100% | 90% | 100% | 100% | – | 100% | 80 to 100% | 100% | 100% | –
3 | Cc1nc([C@H](C)NC(=O)c2cc(Cl)cc(C(F)(F)F)c2)n(-c2cc(C#N)ccn2)n1 [II-18] | 90% | 100% | 100% | 100% | 100% | 100% | – | 100% | 80 to 100% | 100% | 100% | –
4 | Cc1nc([C@H](C)NC(=O)c2cc(C(F)(F)F)cc(C(F)(F)F)c2)n(-c2cc(C#N)ccn2)n1 [II-19] | 100% | 100% | 100% | 100% | 100% | 100% | – | 100% | 80 to 100% | 100% | 100% | –
5 | CC(=O)Nc1ccnc(-n2ncnc2[C@H](C)NC(=O)c2cc(Cl)cc(OC(F)(F)F)c2)c1 [II-22] | 100% | – | 83% | 80% | – | 100% | – | 100% | 80 to 100% | 100% | 100% | 80 to 100%
6 | CCN(C)C(=O)c1ccc(-n2ncnc2[C@H](C)NC(=O)c2cc(Cl)cc(C(F)(F)F)c2)nc1 [II-27] | – | 83% | 83% | 100% | – | 100% | 100% | 100% | 80 to 100% | 100% | 100% | –
7 | CCN(C(=O)c1ccc(-n2ncnc2[C@H](C)NC(=O)c2cc(Cl)cc(C(F)(F)F)c2)nc1)C1CC1 [II-31] | – | 100% | 100% | 100% | 100% | 100% | 90% | 100% | 80 to 100% | 100% | 100% | –
8 | CC(=O)Nc1ccnc(-n2ncnc2[C@H](C)NC(=O)c2cc(Cl)cc(C(F)(F)F)c2)c1 [II-36] | – | 100% | 100% | 100% | – | – | 90% | 100% | 80 to 100% | 80% | 100% | 80 to 100%
